Paper PMC6929626, “PET/MRI enables simultaneous in vivo quantification of β-cell mass and function” (Theranostics, 2020)

System: VDCC
Test: Manganese-enhanced MRI (T1 maps, R1, estimated [Mn]) of pancreas and insulinomas
Assay type: in vivo, mice
Conditions: for [Mn]: estimated from (R1post-R1pre)/r1
Protocol: In brief, mice were fasted for 4-6 hours and anesthetized with 1-2% isoflurane/O2 gas mixture (Vetland, Louisville, KY, USA) before the in vivo measurements. A tail vein catheter was initially placed for the co-injection of 50 µL of tracer solution (0.12 MBq/g bodyweight) and 50 µL of MnCl2:Bicine solution (75 µmol/kg body weight). The animals were placed in supine position on the bed in order to attenuate the motion artifacts rising from the respiratory movements. Thus, [^64Cu]Ex4 and MnCl2 solution were co-injected i.v. as a bolus a few seconds after the beginning of dynamic PET measurements. An additional i.v. injection of glucose solution (1.5 g/kg) was performed five minutes after the PET tracer and MR contrast agent injection to enhance the metabolic uptake of Mn by the pancreas. PET quantification was performed by 20-min static frames acquired simultaneously with 7T MRI scanner using a compatible PET-insert or consecutively using an Inveon-PET scanner (Inveon Dedicated PET, Siemens Healthineers, Knoxville, TN, USA). MR images were acquired using a mouse body quadrature volume RF-resonator with an inner diameter of 40 mm (MT0205, Bruker) on a 7 T Preclinical MR scanner (BioSpec 70/30, Bruker BioSpin MRI GmbH, Ettlingen, DE). During the acquisition, we monitored the breathing with an MR-compatible breathing sensor. The body temperature was maintained at 37 °C using a water-based warming pad.
In vivo MR measurement started with the acquisition of a rapid acquisition with relaxation enhancement (RARE) turbo-spin-echo (TSE) sequence with a large field of view to perform whole-body imaging with the following MR parameters: fat suppression module, repetition time (TR)/echo time (TE)=800/30.8 ms, respectively, field of view (FoV)=64×32×23 mm^3, matrix size 256×128, one average, bandwidth (BW)=75 kHz, RARE Factor (RF)=16 and an isotropic resolution of 0.25 mm. Then, we acquired consecutive RF-spoiled and slab selective gradient-echo (GRE) pulse sequences with short TR and keeping at the minimum the TE and using the following MR parameters: TR/TE=10/1.9 ms, FoV=34×34×17 mm^3, matrix size 128×128, two averages, BW=75 kHz, Sharpness=7 and approximatively 3 min of acquisition time per scan. Quantification of T1 was calculated by the acquisition of either two flip angles (4°, 22°), 0.27×0.27 mm^2 of in-plane resolution and 0.53 mm of slice thickness, or three flip angles (4°, 14°, 27°) with an isotropic resolution of 0.27 mm as described in Table 1.
The volume of interest (VOI) for the entire pancreas (Pancreas^Control; Pancreas^RIP1-Tag2) and the detected insulinomas (Insulinomas^RIP1-Tag2) were manually drawn in Inveon Research Workplace (Siemens Heathineers) after co-registration of the PET images. The T1-w images and the T1 maps were as well co-registered and used as anatomical references. The co-registered VOIs were exported and analyzed in MATLAB (R2013b; The MathWorks, Natick, MA, USA) using an in-house script. The percent injected dose per mL (%ID/mL) of the PET tracer was calculated voxel-wise by adjusting the radioactivity units (kBq/mL) for the injected activity and the half-life of ^64Cu (t1/2=12.7 h). On the other hand, the longitudinal relaxation rate (R1=1/T1) was calculated from the respective region drawn on the T1 maps. For the quantification, we considered voxels with R1 values between 0.4 and 10 s^-1. The estimated concentrations of Mn ([Mn]) were also calculated voxel-wise by the subtraction image acquired before and after the injection of MR-contrast agent and using the relaxivity (r1) of MnCl2:Bicine ([Mn]∝∆R1=(R1post-R1pre)/r1), which was calculated separately in a phantom study (Method S1 and Fig. S10). The indexes of [Mn] after 24 h were calculated using the overall mean of R1 obtained before and after 24 h, due to the different anatomical localization of the pancreata. […]

- [Mn] (Table S1, VOI Insulinomas 10-wk, 1 h, n=3/4): 1.4 ± 0.2 mM×10^-1
- log10(R1)×10^1 (Table S1, VOI Insulinomas 10-wk, 1 h, group mean ± SD of medians, n=3/4): 1.8 ± 0.2
- [Mn] (Table S1, VOI Insulinomas 10-wk, 24 h, n=3/3): 0.8 ± 0.2 mM×10^-1
- log10(R1)×10^1 (Table S1, VOI Insulinomas 10-wk, 24 h, group mean ± SD of medians, n=3/3): 0.5 ± 0.5
- [Mn] (Table S1, VOI Insulinomas 13-wk, 1 h, n=3/4): 0.9 ± 0.4 mM×10^-1
- log10(R1)×10^1 (Table S1, VOI Insulinomas 13-wk, 1 h, group mean ± SD of medians, n=3/4): 0.6 ± 1.1
- [Mn] (Table S1, VOI Insulinomas 13-wk, 24 h, n=3/3): 0.3 ± 0.4 mM×10^-1
- log10(R1)×10^1 (Table S1, VOI Insulinomas 13-wk, 24 h, group mean ± SD of medians, n=3/3): 1.6 ± 0.2
- [Mn] (Table S1, VOI Pancreas Control, 1 h, group mean ± SD, n=3/4): 1.8 ± 0.2 mM×10^-1
- log10(R1)×10^1 (Table S1, VOI Pancreas Control, 1 h, group mean ± SD of medians, n=3/4): 2.7 ± 0.3
- [Mn] (Table S1, VOI Pancreas Control, 24 h, group mean ± SD, n=3/3): 0.6 ± 0.2 mM×10^-1
- log10(R1)×10^1 (Table S1, VOI Pancreas Control, 24 h, group mean ± SD of medians, n=3/3): 1.0 ± 0.8
- [Mn] (Table S1, VOI Pancreas RIP1-Tag2 10-wk, 1 h, n=3/4): 1.2 ± 0.2 mM×10^-1
- log10(R1)×10^1 (Table S1, VOI Pancreas RIP1-Tag2 10-wk, 1 h, group mean ± SD of medians, n=3/4): 1.5 ± 0.6
- [Mn] (Table S1, VOI Pancreas RIP1-Tag2 10-wk, 24 h, n=3/3): 0.4 ± 0.1 mM×10^-1
- log10(R1)×10^1 (Table S1, VOI Pancreas RIP1-Tag2 10-wk, 24 h, group mean ± SD of medians, n=3/3): 0.0 ± 0.2
- [Mn] (Table S1, VOI Pancreas RIP1-Tag2 13-wk, 1 h, n=3/4): 1.0 ± 0.5 mM×10^-1
- log10(R1)×10^1 (Table S1, VOI Pancreas RIP1-Tag2 13-wk, 1 h, group mean ± SD of medians, n=3/4): 0.9 ± 1.6
- [Mn] (Table S1, VOI Pancreas RIP1-Tag2 13-wk, 24 h, n=3/3): 0.5 ± 0.4 mM×10^-1
- log10(R1)×10^1 (Table S1, VOI Pancreas RIP1-Tag2 13-wk, 24 h, group mean ± SD of medians, n=3/3): 0.1 ± 0.3
- log10(R1)×10^1 (VOI Insulinomas RIP1-Tag2 10-15 wk pooled, 1 h after i.v. 75 µmol/kg, mean ± SD): 1.2 ± 1.2
- log10(R1)×10^1 (VOI Insulinomas RIP1-Tag2 10-15 wk pooled, 24 h after i.v. 75 µmol/kg, mean ± SD): 0.4 ± 0.5
- log10(R1)×10^1 (VOI Pancreas Control, 1 h after i.v. 75 µmol/kg, 7 T, three flip angles, R1=1/T1, mean ± SD, n=3): 3.0 ± 0.7
- log10(R1)×10^1 (VOI Pancreas Control, 24 h after i.v. 75 µmol/kg, 7 T, three flip angles, mean ± SD, n=6): 0.1 ± 0.6
- log10(R1)×10^1 (VOI Pancreas RIP1-Tag2 10-15 wk pooled, 1 h after i.v. 75 µmol/kg, mean ± SD, n=7): 1.2 ± 1.1
- log10(R1)×10^1 (VOI Pancreas RIP1-Tag2 10-15 wk pooled, 24 h after i.v. 75 µmol/kg, mean ± SD, n=13): -0.1 ± 0.4
- [Mn] estimated in vivo, times lower in detected insulinomas than in pancreas of control mice (early time points (1 h)): ~2 times
Substance: MnCl2:Bicine
